This is an account of results in ChEMBL document CHEMBL6071129, “Strategies that regulate Hippo signaling pathway for novel anticancer therapeutics” (Eur J Med Chem, 2024).

The test system of one assay is HT-29. The assay can be described thus: Antiproliferative activity against human HT-29 cells incubated for 48 hrs by MTT assay. The format is functional, cell-based. To be noted: HT-29, 48 h.
Assay [1] is described as follows: Antiproliferative activity against human HCA46 cells incubated for 48 hrs by MTT assay. As to conditions: HCA46, 48 h. Type of assay: functional, cell-based. (Tetrazolium assays rely on reduction of a dye to a coloured formazan, in cell work by metabolically active cells.)
Assay [2] in a line: Antiproliferative activity against human A2780/CP70 cells incubated for 48 hrs by MTT assay. The format is functional, cell-based. As to conditions: A2780/CP70, 48 h.
In another assay the test system is HCT-116. The assay can be described thus: Antiproliferative activity against human HCT-116 cells incubated for 48 hrs by MTT assay. Type of assay: functional, cell-based. As to conditions: HCT-116, 48 h.
The subject of a further assay is A2780. The assay can be described thus: Antiproliferative activity against human A2780 cells incubated for 48 hrs by MTT assay. Type of assay: functional, cell-based. To be noted: A2780, 48 h.
Assay [3] in a line: Inhibition of TEAD4 (unknown origin) to YAP (unknown origin) expressed in HEK293 cells incubated for 16 hrs by dual luciferase reporter assay. The format is cell-based. As to conditions: Homo sapiens, HEK293, 16 h. In general terms: In a reporter assay the amount or activity of a reporter protein is the signal.

In general, IC50 refers to the concentration needed to halve the response being measured. Read a high IC50 as weaker potency in that assay.

On to `C=Cc1c(C)/c2[nH]/c1=C\C1=NC(=C\C3=NC(=C\C4=NC(=C5C=CC(C(=O)OC)=C(C(=O)OC)[C@@]45C)\C=2)/C(C)=C3CCC(=O)OC)/C(CCC(=O)O)=C1C`, for which the IC50 in the assay with HT-29 is 3.1 µM; in assay [1] it was 5.55 µM; in assay [2] it was 12.3 µM; in the assay on HCT-116, 14.7 µM; in the assay on A2780, 12.4 µM; in assay [3], 8.6 µM.
